Source: US20240092773A1, “DIHYDRO-CYCLOPENTA-ISOQUINOLINE SULFONAMIDES DERIVATIVES” (UCB Biopharma SRL, priority 2019, published 2024)

Biological target: IgE-Tb binding to soluble IgE receptor FcεR1α (Y131A mutation) (Homo sapiens, UniProt P01854, N146Q/N252Q)
Test: In vitro FRET assay: inhibition of binding of IgE-Tb to receptor FcεR1α-Y131A-AF488
Settings: read-out: FRET IC50 range

Chain of IgE-Tb binding to soluble IgE receptor FcεR1α (Y131A mutation) (P01854 whole entry N146Q/N252Q, looked up): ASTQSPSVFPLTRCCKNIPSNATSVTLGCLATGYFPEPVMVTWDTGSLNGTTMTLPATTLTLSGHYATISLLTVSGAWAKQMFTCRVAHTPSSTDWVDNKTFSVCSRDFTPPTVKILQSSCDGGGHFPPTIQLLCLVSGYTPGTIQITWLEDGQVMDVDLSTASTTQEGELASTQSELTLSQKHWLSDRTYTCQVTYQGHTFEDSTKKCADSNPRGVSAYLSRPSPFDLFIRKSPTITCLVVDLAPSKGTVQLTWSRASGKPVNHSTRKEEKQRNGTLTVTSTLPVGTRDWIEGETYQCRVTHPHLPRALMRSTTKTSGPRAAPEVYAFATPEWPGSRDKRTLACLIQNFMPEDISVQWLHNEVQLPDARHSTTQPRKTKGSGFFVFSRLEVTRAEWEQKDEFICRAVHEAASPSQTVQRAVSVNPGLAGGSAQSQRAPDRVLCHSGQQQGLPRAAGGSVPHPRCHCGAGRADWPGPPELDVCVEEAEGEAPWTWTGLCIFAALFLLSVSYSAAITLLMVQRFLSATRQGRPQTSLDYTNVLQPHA

| SMILES | IC50 |
| --- | --- |
| CCNC1=NS(=O)(=O)N=C1NC1CCc2c1cc(S(=O)(=O)NCC(C)C)c1cc(C3CC3)ncc21 (stereo not drawn) [Example 54, 3-cyclopropyl-7-[[4-(ethylamino)-1,1-dioxo-1,2,5-thiadiazol-3-yl]amino]-N-(2-methylpropyl)-8,9-dihydro-7H-cyclopenta[h]isoquinoline-5-sulfonamide] | 100 to 2000 nM |
| Cc1ccc(NC(=NC#N)NC2CCc3c2cc(S(=O)(=O)NCC(C)C)c2cc(C4CC4)ncc32)cc1 (stereo not drawn) [Example 55, 2-cyano-1-[3-cyclopropyl-5-(2-methylpropylsulfamoyl)-8,9-dihydro-7H-cyclopenta[h]isoquinolin-7-yl]-3-(4-methylphenyl)guanidine] | 100 to 2000 nM |
| CC(C)(F)CNS(=O)(=O)c1cc2c(c3cnc(C4CC4)cc13)CCC2N1CCC[C@@H](N)C1 (stereo partly drawn) [Example 57, 7-[(3R)-3-aminopiperidin-1-yl]-3-cyclopropyl-N-(2-fluoro-2-methylpropyl)-8,9-dihydro-7H-cyclopenta[h]isoquinoline-5-sulfonamide] | 100 to 2000 nM |
| Cc1cc(C(=O)NC2CN(C3CCc4c3cc(S(=O)(=O)NCC(C)(C)F)c3cc(C5CC5)ncc43)C2)n(C)n1 (stereo not drawn) [Example 59, N-[1-[3-cyclopropyl-5-[(2-fluoro-2-methylpropyl)sulfamoyl]-8,9-dihydro-7H-cyclopenta[h]isoquinolin-7-yl]azetidin-3-yl]-2,5-dimethylpyrazole-3-carboxamide] | 100 to 2000 nM |
| CC(C)(F)CNS(=O)(=O)c1cc2c(c3cnc(C4CC4)cc13)CCC2NC1=CC(=O)C1(C)C (stereo not drawn) [Example 60, 3-cyclopropyl-7-[(4,4-dimethyl-3-oxocyclobuten-1-yl)amino]-N-(2-fluoro-2-methylpropyl)-8,9-dihydro-7H-cyclopenta[h]isoquinoline-5-sulfonamide] | 100 to 2000 nM |
| CC(C)(F)CNS(=O)(=O)c1cc2c(c3cnc(C4CC4)cc13)CCC2NCc1cc2ccccc2[nH]1 (stereo not drawn) [Example 61, 3-cyclopropyl-N-(2-fluoro-2-methylpropyl)-7-(1H-indol-2-ylmethylamino)-8,9-dihydro-7H-cyclopenta[h]isoquinoline-5-sulfonamide] | 100 to 2000 nM |
| CC(C)CNS(=O)(=O)c1cc2c(c3cnc(C4CC4)cc13)C(O)CC2 (stereo not drawn) [Example 62, 3-cyclopropyl-9-hydroxy-N-(2-methylpropyl)-8,9-dihydro-7H-cyclopenta[h]isoquinoline-5-sulfonamide] | 100 to 2000 nM |
| CC(C)CNS(=O)(=O)c1cc2c(c3cnc(C4CC4)cc13)C(=O)CC2 [Example 63, 3-cyclopropyl-N-(2-methylpropyl)-9-oxo-7,8-dihydrocyclopenta[h]isoquinoline-5-sulfonamide] | 100 to 2000 nM |
| CC(C)CNS(=O)(=O)c1cc2c(c3cnc(C4CC4)cc13)C(C)(O)CC2 (stereo not drawn) [Example 64, 3-cyclopropyl-9-hydroxy-9-methyl-N-(2-methylpropyl)-7,8-dihydrocyclopenta[h]isoquinoline-5-sulfonamide] | 100 to 2000 nM |
| CC(C)CNS(=O)(=O)c1cc2c(c3cnc(C4CC4)cc13)C(F)CC2 (stereo not drawn) [Example 65, 3-cyclopropyl-9-fluoro-N-(2-methylpropyl)-8,9-dihydro-7H-cyclopenta[h]isoquinoline-5-sulfonamide] | 100 to 2000 nM |
| CCNC1=NS(=O)(=O)N=C1NC1CCc2cc(S(=O)(=O)NCC(C)C)c3cc(C4CC4)ncc3c21 (stereo not drawn) [Example 66, 3-cyclopropyl-9-[[4-(ethylamino)-1,1-dioxo-1,2,5-thiadiazol-3-yl]amino]-N-(2-methylpropyl)-8,9-dihydro-7H-cyclopenta[h]isoquinoline-5-sulfonamide] | 100 to 2000 nM |
| Cn1cc(C#N)c(NC2CCc3cc(S(=O)(=O)NCC(C)(C)F)c4cc(C5CC5)ncc4c32)n1 (stereo not drawn) [Example 67, 9-[(4-cyano-1-methylpyrazol-3-yl)amino]-3-cyclopropyl-N-(2-fluoro-2-methylpropyl)-8,9-dihydro-7H-cyclopenta[h]isoquinoline-5-sulfonamide] | 100 to 2000 nM |
| CC(C)(F)CNS(=O)(=O)c1cc2c(c3cnc(C4CC4)cc13)C(Nc1cncc3ccccc13)CC2 (stereo not drawn) [Example 68, 3-cyclopropyl-N-(2-fluoro-2-methylpropyl)-9-(isoquinolin-4-ylamino)-8,9-dihydro-7H-cyclopenta[h]isoquinoline-5-sulfonamide] | 100 to 2000 nM |
| Cc1ccc(N/C(=N\C#N)NC2CCc3cc(S(=O)(=O)NCC(C)C)c4cc(C5CC5)ncc4c32)cc1 (stereo not drawn) [Example 69, 2-cyano-1-[3-cyclopropyl-5-(2-methylpropylsulfamoyl)-8,9-dihydro-7H-cyclopenta[h]isoquinolin-9-yl]-3-(4-methylphenyl)guanidine] | 100 to 2000 nM |
| CC(C)CNS(=O)(=O)c1cc2c(c3cnc(C4CC4)cc13)C(NS(C)(=O)=O)CC2 (stereo not drawn) [Example 70, 3-cyclopropyl-9-(methanesulfonamido)-N-(2-methylpropyl)-8,9-dihydro-7H-cyclopenta[h]isoquinoline-5-sulfonamide] | 100 to 2000 nM |
| CCNC(=S)NC1CCc2cc(S(=O)(=O)NCC(C)C)c3cc(C4CC4)ncc3c21 (stereo not drawn) [Example 71, 1-[3-cyclopropyl-5-(2-methylpropylsulfamoyl)-8,9-dihydro-7H-cyclopenta[h]isoquinolin-9-yl]-3-ethylthiourea] | 100 to 2000 nM |
| CCNc1nncn1C1CCc2cc(S(=O)(=O)NCC(C)C)c3cc(C4CC4)ncc3c21 (stereo not drawn) [Example 72, 3-cyclopropyl-9-[3-(ethylamino)-1,2,4-triazol-4-yl]-N-(2-methylpropyl)-8,9-dihydro-7H-cyclopenta[h]isoquinoline-5-sulfonamide] | 100 to 2000 nM |
| CC(C)CNS(=O)(=O)c1cc2c(c3cnc(C4CC4)cc13)C(NC(=S)Nc1cccnc1)CC2 (stereo not drawn) [Example 74, 1-[3-cyclopropyl-5-(2-methylpropylsulfamoyl)-8,9-dihydro-7H-cyclopenta[h]isoquinolin-9-yl]-3-pyridin-3-ylthiourea] | 100 to 2000 nM |
| CC(C)CNS(=O)(=O)c1cc2c(c3cnc(C4CC4)cc13)C(Nc1nncn1-c1cccnc1)CC2 (stereo not drawn) [Example 75, 3-cyclopropyl-N-(2-methylpropyl)-9-[(4-pyridin-3-yl-1,2,4-triazol-3-yl]amino]-8,9-dihydro-7H-cyclopenta[h]isoquinoline-5-sulfonamide] | 10 to 50 nM |
| Cc1nnc(-c2ccc(NC3CCc4cc(S(=O)(=O)NCC(C)(C)F)c5cc(C6CC6)ncc5c43)cn2)o1 (stereo not drawn) [Example 76, 3-cyclopropyl-N-(2-fluoro-2-methylpropyl)-9-[[6-(5-methyl-1,3,4-oxadiazol-2-yl)pyridin-3-yl]amino]-8,9-dihydro-7H-cyclopenta[h]isoquinoline-5-sulfonamide] | 100 to 2000 nM |
| Cn1nnc(-c2ccc(NC3CCc4cc(S(=O)(=O)NCC(C)(C)F)c5cc(C6CC6)ncc5c43)cn2)n1 (stereo not drawn) [Example 77, 3-cyclopropyl-N-(2-fluoro-2-methylpropyl)-9-[[6-(2-methyltetrazol-5-yl)pyridin-3-yl]amino]-8,9-dihydro-7H-cyclopenta[h]isoquinoline-5-sulfonamide] | 50 to 100 nM |
| CC(C)CNS(=O)(=O)c1cc2c(c3cnc(C4CC4)cc13)C(Nc1c(Nc3cccnc3)c(=O)c1=O)CC2 (stereo not drawn) [Example 78, 3-cyclopropyl-9-[[3,4-dioxo-2-(pyridin-3-ylamino)cyclobuten-1-yl]amino]-N-(2-methylpropyl)-8,9-dihydro-7H-cyclopenta[h]isoquinoline-5-sulfonamide] | 50 to 100 nM |
| O=S(=O)(NC1CC(F)(F)C1)c1cc2c(c3cnc(C4CC4)cc13)CCC2n1cnnc1NCC1CC1 (stereo not drawn) [Example 81, 3-cyclopropyl-7-[3-(cyclopropylmethylamino)-1,2,4-triazol-4-yl]-N-(3,3-difluorocyclobutyl)-8,9-dihydro-7H-cyclopenta[h]isoquinoline-5-sulfonamide] | 100 to 2000 nM |
| O=S(=O)(NC1CC(F)C1)c1cc2c(c3cnc(C4CC4)cc13)CCC2n1cnnc1NCC1CC1 (stereo not drawn) [Example 82, 3-cyclopropyl-7-[3-(cyclopropylmethylamino)-1,2,4-triazol-4-yl]-N-(3-fluorocyclobutyl)-8,9-dihydro-7H-cyclopenta[h]isoquinoline-5-sulfonamide] | 100 to 2000 nM |
| CC(C)CNS(=O)(=O)c1cc2c(c3cnc(C4CC4)cc13)CCC2NS(C)(=O)=O (stereo not drawn) [Example 83, 3-cyclopropyl-7-(methanesulfonamido)-N-(2-methylpropyl)-8,9-dihydro-7H-cyclopenta[h]isoquinoline-5-sulfonamide] | 100 to 2000 nM |
| CC(C)CNS(=O)(=O)c1cc2c(c3cnc(C4CC4)cc13)CCC2Nc1c(Nc2cccnc2)c(=O)c1=O (stereo not drawn) [Example 84, 3-cyclopropyl-7-[[3,4-dioxo-2-(pyridin-3-ylamino)cyclobuten-1-yl]amino]-N-(2-methylpropyl)-8,9-dihydro-7H-cyclopenta[h]isoquinoline-5-sulfonamide] | 10 to 50 nM |
| Cc1cc(-n2cnnc2NC2CCc3c2cc(S(=O)(=O)NCC(C)C)c2cc(C4CC4)ncc32)n(C)n1 (stereo not drawn) [Example 88, 3-cyclopropyl-7-[[4-(2,5-dimethylpyrazol-3-yl)-1,2,4-triazol-3-yl]amino]-N-(2-methylpropyl)-8,9-dihydro-7H-cyclopenta[h]isoquinoline-5-sulfonamide] | 100 to 2000 nM |
| CC(C)CNS(=O)(=O)c1cc2c(c3cnc(C4CC4)cc13)CCC2Nc1nncn1-c1cccnc1 (stereo not drawn) [Example 90, 3-cyclopropyl-N-(2-methylpropyl)-7-[(4-pyridin-3-yl-1,2,4-triazol-3-yl)amino]-8,9-dihydro-7H-cyclopenta[h]isoquinoline-5-sulfonamide] | 100 to 2000 nM |
| CC(C)CNS(=O)(=O)c1cc2c(c3cnc(C4CC4)cc13)CCC2n1cnnc1Nc1cccnc1 (stereo not drawn) [Example 91, 3-cyclopropyl-N-(2-methylpropyl)-7-[3-(pyridin-3-ylamino)-1,2,4-triazol-4-yl]-8,9-dihydro-7H-cyclopenta[h]isoquinoline-5-sulfonamide] | 10 to 50 nM |
| CC(C)CNS(=O)(=O)c1cc2c(c3cnc(C4CC4)cc13)CCC2Nc1nc2ccccc2[nH]1 (stereo not drawn) [Example 92, 7-(1H-benzimidazol-2-ylamino)-3-cyclopropyl-N-(2-methylpropyl)-8,9-dihydro-7H-cyclopenta[h]isoquinoline-5-sulfonamide] | 10 to 50 nM |
